Patent US20190322676A1, “CERAMIDE GALACTOSYLTRANSFERASE INHIBITORS FOR THE TREATMENT OF DISEASE” (BioMarin Pharmaceutical Inc., priority 2016, published 2019)
Counter-ions that a name gives are not always drawn.

target: T1, human CGT (ceramide galactosyltransferase), CHO/CGT lysate (Homo sapiens, UniProt Q16880); experiment: CGT enzyme assay, RapidFire/MS/MS readout (Table 1 ranges with one asterisk *); format: biochemical; settings: RapidFire method (range with one asterisk *)
T1 construct: Full-length human CGT cDNA was cloned into the BamH1/Xho1 site of pcDNA3.1 (+); expressed in transfected cells; host or cells: Chinese hamster ovary (CHO) cells; lysate prepared with M-PER
T1 sequence (Q16880 21-541): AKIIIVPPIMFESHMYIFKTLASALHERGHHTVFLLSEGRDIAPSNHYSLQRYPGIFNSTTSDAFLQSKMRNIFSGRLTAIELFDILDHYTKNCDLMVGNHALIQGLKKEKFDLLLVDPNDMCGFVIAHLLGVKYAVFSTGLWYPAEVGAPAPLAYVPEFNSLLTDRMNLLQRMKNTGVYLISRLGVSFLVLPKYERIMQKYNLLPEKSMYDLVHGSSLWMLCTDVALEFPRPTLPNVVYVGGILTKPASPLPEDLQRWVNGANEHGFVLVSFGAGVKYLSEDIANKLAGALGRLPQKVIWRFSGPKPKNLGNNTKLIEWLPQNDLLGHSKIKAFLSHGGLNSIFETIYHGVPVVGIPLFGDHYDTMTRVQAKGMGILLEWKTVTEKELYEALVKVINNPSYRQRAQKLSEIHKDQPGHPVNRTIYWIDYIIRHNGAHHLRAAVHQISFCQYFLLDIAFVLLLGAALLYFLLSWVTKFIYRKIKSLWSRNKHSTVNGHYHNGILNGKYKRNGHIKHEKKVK
Description: Full-length human CGT cDNA was cloned into the BamH1/Xho1 site of pcDNA3.1 (+) mammalian expression vector (V90-20, Invitrogen, Carlsbad, Calif.) and the plasmid was transfected into Chinese hamster ovary (CHO) cells. Lysate was prepared using M-PER (Mammalian Protein Extraction Reagent, ThermoFisher Scientific, Grand Island, N.Y.) in the presence of a protease inhibitor cocktail (P8340, Sigma, Saint Louis, Mo.). Each 100 mm dish (100% confluent, approximately 1×10^7 cells) was lysed with 250 μL of M-PER containing protease inhibitors. Protein concentration was determined using a Pierce BCA protein assay kit (ThermoFisher Scientific). Four micrograms of CHO/CGT lysate was incubated with various concentrations of a compound (0.001 μM-50 μM) in 10 mM HEPES (pH 7.2) containing 35 μM dioleoylphosphatidylcholine, 5 mM MgCl2, 5 mM MnCl2, 1% BSA, 15 mM KCl, 1 mM EGTA, 8 mM CHAPS, 10 μM C6-NBD-dihydro-ceramide and 17.5 μM UDP-galactose in a final reaction volume of 20 μL at 37° C. for 1 hour. The final concentration of DMSO was 0.5% in both compound-treated and mock-treated samples. Tween 80 (0.01%) was optionally added to the reaction mixture to help solubilize the compounds. Each individual reaction was diluted with 80 μL of methanol:acetronitrile (1:3) containing 5 μM N-docdecanoyl-NBD-galactosylceramide (internal standard) to stop the reaction. 200 μL H2O:acetonitile (1:1) was added to precipitate the protein. After sufficient mixing, the plates were centrifuged at 2469 g for 38 minutes, 200 μL of supernatant was transferred to a LC/MS 96-deep well plate and a second spin was performed at 2469 g for 10 minutes. The final supernatant was injected in triplicate for RapidFire/MS/MS analysis.
Quantitative Analysis Using the RapidFire/MS/MS Method:
The quantitative analysis of C6-NBD-dihydro-ceramide and C6-NBD-dihydro-galactosylceramide was performed on a Rapid Fire 360 high-throughput mass spectrometry system (Agilent Technologies, Palo Alto, Calif.) coupled with a API4000^+ triple quadrupole mass spectrometer (Applied Biosystems, Concord, Ontario, Canada). RapidFire software packages, including RapidFire Control panel, RapidFire UI and RapidFire Integrator (Agilent Technologies), were used to control the RapidFire instrument and to process data. Analyst 1.6.2 software packages (Applied Biosystems) were used to control the MS system and acquire MS data. […] of sample was loaded on a micro-scale C4 solid-phase extraction (SPE) cartridge (Agilent Technologies) and salts were removed using water supplemented with 0.1% formic acid at the flow rate of 1.5 mL/min for 3 sec. C6-NBD-dihydro-ceramide and C6-NBD-dihydro-galactosylceramide were co-eluted into the mass spectrometer using acetonitrile containing 0.1% formic acid at the flow rate of 1.0 mL/min for 3 sec. The total cycle time of one injection was 8 secs. The MS/MS detection was performed in ESI negative mode. The mass transition of C6-NBD-dihydro-galactosylceramide was m/z 752.6→678.6 using a −40 V collision energy, the mass transition of C6-NBD-dihydro-ceramide was m/z 590.6→115.8 using a −40 V collision energy and the mass transition of N-docdecanoyl-NBD-galactosylceramide was m/z 820.9→746.3 using a −45 V collision energy.
The C6-NBD-dihydro-galactosylceramide reading was normalized first by dividing the peak area of C6-NBD-dihydro-galactosylceramide by the peak area of the internal standard, N-docdecanoyl-NBD-galactosylceramide. IC50 values (see Table 1, where data ranges with one asterix (*) correspond to analysis using the RapidFire/MS/MS method, and data ranges with two asterixes (**) correspond to analysis using the RapidFire/MS/MS method with 0.01% Tween added) were generated from sigmoidal dose-response curves (variable slope) with GraphPad Prism software (GraphPad Software, Inc., San Diego, Calif.) using the normalized peak areas of C6-NBD-dihydro-galactosylceramide or the percent inhibition of C6-NBD-dihydro-galactosylceramide accumulation relative to DMSO control. […]

Structure (SMILES) | IC50
COc1cc(C(F)(F)[C@@H](NS(=O)(=O)c2ccc3cc(OC4CCCC4)ccc3c2)C(=O)N2C3CCC2CC(N)C3)ccc1Cl (single isomer, unassigned) [Compound 124-2] | 1 to 10 µM
NC1CC2CCC(C1)N2C(=O)[C@@H](NS(=O)(=O)c1ccc2cc(OC3CCCC3)ccc2c1)C(F)(F)c1ccc(Cl)cc1 (stereo partly drawn) [Compound 28-1, N-((2R)-3-(3-amino-8-azabicyclo[3.2.1]octan-8-yl)-1-(4-chlorophenyl)-1,1-difluoro-3-oxopropan-2-yl)-6-(cyclopentyloxy)naphthalene-2-sulfonamide trifluoroacetate] | < 1 µM
NC1CC2CCC(C1)N2C(=O)[C@H](NS(=O)(=O)c1ccc2cc(OC3CCCC3)ccc2c1)C(F)(F)c1ccc(Cl)cc1 (stereo partly drawn) [Compound 28-2, N-((2S)-3-(3-amino-8-azabicyclo[3.2.1]octan-8-yl)-1-(4-chlorophenyl)-1,1-difluoro-3-oxopropan-2-yl)-6-(cyclopentyloxy)naphthalene-2-sulfonamide trifluoroacetate] | 1 to 10 µM
NC1CC2CCC(C1)N2C(=O)[C@@H](NS(=O)(=O)c1ccc(OCC2CCCCC2)cc1)C(F)(F)c1ccc(Cl)cc1 (stereo partly drawn) [Compound 29-1, N-((2R)-3-(3-amino-8-azabicyclo[3.2.1]octan-8-yl)-1-(4-chlorophenyl)-1,1-difluoro-3-oxopropan-2-yl)-4-(cyclohexylmethoxy)benzenesulfonamide trifluoroacetate] | < 1 µM
NC1CC2CCC(C1)N2C(=O)[C@H](NS(=O)(=O)c1ccc(OCC2CCCCC2)cc1)C(F)(F)c1ccc(Cl)cc1 (stereo partly drawn) [Compound 29-2, N-((2S)-3-(3-amino-8-azabicyclo[3.2.1]octan-8-yl)-1-(4-chlorophenyl)-1,1-difluoro-3-oxopropan-2-yl)-4-(cyclohexylmethoxy) benzenesulfonamide trifluoroacetate] | 1 to 10 µM
NC1CCN(C(=O)[C@@H](NS(=O)(=O)c2ccc(OCC3CCCCC3)cc2)C(F)(F)c2ccc(Cl)cc2)CC1 [Compound 30-1, (R)—N-(3-(4-aminopiperidin-1-yl)-1-(4-chlorophenyl)-1,1-difluoro-3-oxopropan-2-yl)-4-(cyclohexylmethoxy)benzenesulfonamide trifluoroacetate] | 1 to 10 µM
NC1CCN(C(=O)[C@H](NS(=O)(=O)c2ccc(OCC3CCCCC3)cc2)C(F)(F)c2ccc(Cl)cc2)CC1 [Compound 30-2, (S)—N-(3-(4-aminopiperidin-1-yl)-1-(4-chlorophenyl)-1,1-difluoro-3-oxopropan-2-yl)-4-(cyclohexylmethoxy)benzenesulfonamide trifluoroacetate] | 10 to 30 µM
CC(C)Oc1ccc2cc(S(=O)(=O)N[C@H](C(=O)N3C4CCC3CC(N)C4)C(F)(F)c3ccc(-c4ccccc4)cc3)ccc2c1 (stereo partly drawn) [Compound 31-1, N-((2R)-1-([1,1′-biphenyl]-4-yl)-3-(3-amino-8-azabicyclo[3.2.1]octan-8-yl)-1,1-difluoro-3-oxopropan-2-yl)-6-isopropoxynaphthalene-2-sulfonamide trifluoroacetate] | 1 to 10 µM
CC(C)Oc1ccc2cc(S(=O)(=O)N[C@@H](C(=O)N3C4CCC3CC(N)C4)C(F)(F)c3ccc(-c4ccccc4)cc3)ccc2c1 (stereo partly drawn) [Compound 31-2, N-((2S)-1-([1,1′-biphenyl]-4-yl)-3-(3-amino-8-azabicyclo[3.2.1]octan-8-yl)-1,1-difluoro-3-oxopropan-2-yl)-6-isopropoxynaphthalene-2-sulfonamide trifluoroacetate] | 10 to 30 µM
NC1CCN(C(=O)[C@@H](NS(=O)(=O)c2ccc3cc(OC4CCCC4)ccc3c2)C(F)(F)c2ccc(Br)cc2)CC1 [Compound 32-1, (R)—N-(3-(4-aminopiperidin-1-yl)-1-(4-bromophenyl)-1,1-difluoro-3-oxopropan-2-yl)-6-(cyclopentyloxy)naphthalene-2-sulfonamide trifluoroacetate] | < 1 µM
NC1CCN(C(=O)[C@H](NS(=O)(=O)c2ccc3cc(OC4CCCC4)ccc3c2)C(F)(F)c2ccc(Br)cc2)CC1 [Compound 32-2, (S)—N-(3-(4-aminopiperidin-1-yl)-1-(4-bromophenyl)-1,1-difluoro-3-oxopropan-2-yl)-6-(cyclopentyloxy)naphthalene-2-sulfonamide trifluoroacetate] | 10 to 30 µM
NC1CC2CCC(C1)N2C(=O)[C@@H](NS(=O)(=O)c1ccc2cc(OC3CCCCC3)ccc2c1)C(F)(F)c1ccc(Br)cc1 (stereo partly drawn) [Compound 33-1, N-((2R)-3-(3-amino-8-azabicyclo[3.2.1]octan-8-yl)-1-(4-bromophenyl)-1,1-difluoro-3-oxopropan-2-yl)-6-(cyclohexyloxy)naphthalene-2-sulfonamide trifluoroacetate] | < 1 µM
NC1CC2CCC(C1)N2C(=O)[C@H](NS(=O)(=O)c1ccc2cc(OC3CCCCC3)ccc2c1)C(F)(F)c1ccc(Br)cc1 (stereo partly drawn) [Compound 33-2, N-((2S)-3-(3-amino-8-azabicyclo[3.2.1]octan-8-yl)-1-(4-bromophenyl)-1,1-difluoro-3-oxopropan-2-yl)-6-(cyclohexyloxy)naphthalene-2-sulfonamide trifluoroacetate] | 30 to 100 µM
CN([C@H](C(=O)N1C2CCC1CC(N)C2)C(F)(F)c1ccc(Br)cc1)S(=O)(=O)c1ccc2cc(OC3CCCC3)ccc2c1 (stereo partly drawn) [Compound 34-1, N-((2R)-3-(3-amino-8-azabicyclo[3.2.1]octan-8-yl)-1-(4-bromophenyl)-1,1-difluoro-3-oxopropan-2-yl)-6-(cyclopentyloxy)-N-methylnaphthalene-2-sulfonamide trifluoroacetate] | < 1 µM
CN([C@@H](C(=O)N1C2CCC1CC(N)C2)C(F)(F)c1ccc(Br)cc1)S(=O)(=O)c1ccc2cc(OC3CCCC3)ccc2c1 (stereo partly drawn) [Compound 34-2, N-((2S)-3-(3-amino-8-azabicyclo[3.2.1]octan-8-yl)-1-(4-bromophenyl)-1,1-difluoro-3-oxopropan-2-yl)-6-(cyclopentyloxy)-N-methylnaphthalene-2-sulfonamide trifluoroacetate] | 30 to 100 µM
NC1CC2CCC(C1)N2C(=O)[C@@H](NS(=O)(=O)c1ccc(OCC2CCCCC2)cc1)C(F)(F)c1ccc(-c2ccccc2)cc1 (stereo partly drawn) [Compound 35-1, N-((2R)-1-([1,1′-biphenyl]-4-yl)-3-(3-amino-8-azabicyclo[3.2.1]octan-8-yl)-1,1-difluoro-3-oxopropan-2-yl)-4-(cyclohexylmethoxy)benzenesulfonamide trifluoroacetate] | < 1 µM
